Here are results for three molecules from paper PMC4105567, “Aurora Kinases as Druggable Targets in Pediatric Leukemia: Heterogeneity in Target Modulation Activities and Cytotoxicity by Diverse Novel Therapeutic Agents” (PLoS ONE, 2014).

The subject of one series is B1 B-ALL cell line. The series can be described thus: Cytotoxicity assay, B1. The note with it: four days in culture, Alamar blue assay or automated microscopy, ± SD, three experiments. The class given is cell-based, human. An outline of the steps: (§1)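 Cells in Opti-MEM with 10% heat-inactivated FBS and 0.05 mM 2-mercaptoethanol were seeded at 1×10^4 per well with inhibitor (1×10^−6 to 10 µM final, triplicate) or DMSO for 4 days at 37°C. Survival was measured by Alamar blue absorbance (570–620 nm) or bright-field cell counting, as percent of vehicle control.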
(Alamar Blue is a resazurin reagent that responds to reducing activity.)

The subject of the next series is KOPN8 B-ALL cell line. The experiment in a line: Cytotoxicity assay, KOPN8. The class given is cell-based, human. Conditions: four days in culture, Alamar blue assay or automated microscopy, ± SD, three experiments. Summed up: (§2)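 Percent survival versus DMSO control after 4-day inhibitor exposure (1×10^−6 to 10 µM final), based on Alamar blue absorbance or automated microscopy cell counts.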

Another series deals with Molt-3 T-ALL cell line. The experiment in a line: Cytotoxicity assay, Molt-3. Type of series: cell-based, human. Conditions: T-ALL cell line Molt-3, four days in culture, Alamar blue assay or automated microscopy, ± SD, three experiments. An outline of the steps:
as §2

The next series relates to MV4-11 AML cell line. The experiment in a line: Cytotoxicity assay, MV4-11. Type of series: cell-based, human. Conditions: AML cell line MV4-11, four days in culture, Alamar blue assay or automated microscopy, ± SD, three experiments. An outline of the steps:
as §1

A further series relates to HL-60 RA APML cell line. The series can be described thus: Cytotoxicity assay, HL-60 RA. Type of series: cell-based, human. The note with it: APML cell line HL-60 RA, four days in culture, Alamar blue assay or automated microscopy, ± SD, three experiments. An outline of the steps: as §2
A further series concerns Bone Marrow Stroma. The series can be described thus: Cytotoxicity assay, bone marrow stroma. The class given is cell-based, human. The note with it: bone marrow stroma (control for non-leukemia cytotoxicity), four days in culture, ± SD, three experiments.
The test system of series [1] is Patient #3 AML/CML primary leukemia cells. The series can be described thus: Cytotoxicity assay, primary sample Patient #3. Type of series: cell-based, human. Conditions: four days in culture, Alamar blue assay or automated microscopy, one complete study. Summed up:
(§3)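 Ficoll-isolated primary leukemic white cells (1×10^4 per well) in Opti-MEM exposed in triplicate to Aurora kinase inhibitors at 1×10^−6 to 10 µM or DMSO for 4 days. Survival measured by Alamar blue absorbance (570–620 nm) or bright-field direct cell counting, as percent of vehicle control.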

Series [2] concerns Patient #5 ALL/AML primary leukemia cells. The experiment in a line: Cytotoxicity assay, primary sample Patient #5. The class given is cell-based, human. Conditions: primary sample, four days in culture, Alamar blue assay or automated microscopy, one complete study, read-out: IC50, Patient #5 ALL/AML. Summed up: as §3
Series [3] relates to normal bone marrow derived CD34+ cells. The experiment in a line: Hematopoietic colony forming cell assay. Type of series: cell-based, human. The note with it: myeloid and erythroid colonies from CD34+ cells; for colony formation at 0.1–10 µM: 14 days. The procedure: The hematopoietic colony forming cell assay was conducted based on a protocol outlined by StemCell Technologies (Vancouver, British Columbia, Canada). To begin, CD34^+ cells were isolated from residual normal bone marrow transplant specimens obtained after informed consent. Next, several concentrations of Aurora A Inhibitor I, Hesperadin, ZM447439 and AT9283 (0.01, 0.1, 1, 10 µM) and DMSO (Sigma-Aldrich, Oakville, Ontario) (10 µM) were added to separate tubes of MethoCult (StemCell Technologies), a methylcellulose matrix containing recombinant human cytokines stem cell factor (rh SCF), granulocyte macrophage colony-stimulating factor (rh GM-CSF), interleukin-3 (rh IL-3), granulocyte colony stimulating factor (rh G-CSF) and erythropoietin (rh EPO). Following the addition of CD34^+ cells at a final concentration of 5×10^3 cells per dish, the tubes were vortexed and allowed to stand for 5 minutes at room temperature. Next, the MethoCult mixtures were be dispensed into 35 mm dishes (Corning Incorporated, Corning, New York) through blunt end needles (StemCell Technologies) and 5 ml syringes (BD Biosciences, Mississauga, Ontario) at a volume of 1.1 ml per dish. The medium was evenly distributed across the surface of each dish by gentle tilting and rotation. The dishes were then placed in a 150 mm tissue culture dish (BD Biosciences) containing additional 35 mm dishes with sterile water to maintain humidity. The tissue culture dish was then placed at 37°C in a humidified incubator containing 5% CO2 for 14 days. The number of myeloid and erythroid derived colonies in both the treated and control dishes were counted and compared.

The subject of the next series is Aurora-B. On the set-up: method as in earlier work. Conditions: literature values; ref [10],[22],[27],[40],[44]–[64] as listed per inhibitor in Table 1; read-out: Targets (IC50 Value): Aurora-B; cited from earlier work.

Where two headings read alike, the source gives them in different places. Where only a bound is given, the exact number is not on record here.

For `CCN1CCN(C(=O)Cc2ccc(Nc3ncc(F)c(Nc4ccc(C(=O)Nc5ccccc5Cl)cc4)n3)cc2)CC1` [Aurora A Inhibitor I], the IC50 in the series on B1 B-ALL cell line came to 700 ± 100 nM; in the series on KOPN8 B-ALL cell line, 800 ± 50 nM; in the series on Molt-3 T-ALL cell line, 300 ± 200 nM; in the series with MV4-11 AML cell line, 400 ± 100 nM; with HL-60 RA APML cell line, 1000 ± 600 nM; with Bone Marrow Stroma, 4000 ± 500 nM. Further, the results for the IC50 (in [1]; in series [2]; in the series on Aurora-B) were 5000 nM, 6 nM and 3400 nM, respectively. In series [3] (14 days in methylcellulose culture, tested 0.01, 0.1, 1, 10 µM), the “concentration up to which colony formation was not affected” value was no more than 100 nM.
For `CCS(=O)(=O)Nc1ccc2c(c1)/C(=C(/Nc1ccc(CN3CCCCC3)cc1)c1ccccc1)C(=O)N2` [Hesperadin], the IC50 is 0.007 nM in the series on B1 B-ALL cell line (Homo sapiens, 96 h); 0.1 nM with KOPN8 B-ALL cell line (Homo sapiens, KOPN-8, 96 h); less than 0.001 nM in the series on Molt-3 T-ALL cell line (Homo sapiens, 96 h); 0.005 nM in the series on MV4-11 AML cell line (Homo sapiens, 96 h); 0.05 nM in the series with HL-60 RA APML cell line (Homo sapiens, 96 h); 2000 ± 900 nM in the series with Bone Marrow Stroma (Homo sapiens, 96 h). Moreover, the IC50 was 3000 nM in series [1] (Homo sapiens, 96 h); 0.01 nM in [2] (Homo sapiens, 96 h); 250 nM with Aurora-B. The “colony formation at 0.1–10 µM” value in series [3] was “completely inhibited the formation of both types of colonies”.
Regarding `O=C(Nc1c[nH]nc1-c1nc2ccc(CN3CCOCC3)cc2[nH]1)NC1CC1` [AT9283], the IC50 in the series with B1 B-ALL cell line (Homo sapiens, 96 h) came to 60 ± 30 nM; in the series with KOPN8 B-ALL cell line (Homo sapiens, KOPN-8, 96 h), 2 ± 1 nM; with Molt-3 T-ALL cell line (Homo sapiens, 96 h), 0.4 nM; in the series on MV4-11 AML cell line (Homo sapiens, 96 h), 3 ± 2 nM; with HL-60 RA APML cell line (Homo sapiens, 96 h), 3 ± 2 nM; with Bone Marrow Stroma (Homo sapiens, 96 h) it was 5000 ± 2000 nM. Moreover, the IC50 was 1000 nM in series [1] (Homo sapiens, 96 h); 0.3 nM in series [2] (Homo sapiens, 96 h); 3 nM with Aurora-B. For the same molecule, in [3], the “colony formation at 0.1–10 µM” value is reported as “completely inhibited the formation of both types of colonies”.
